Data as given in patent US20210001138A1, “ELECTROSTATIC DRUG DELIVERY” (Nano Hesgarsazan Salamat Arya, priority 2019, published 2021).

System: MC4L2 mice tumor
Experiment: Sonography of MC4L2 mice tumor after injection of the free drug, with or without electrostatic field
Details: for trace of tumor after the second injection period: every 3 days
Description: Here, three injection periods of Cisplatin were carried out every 3 days for a group of mice having a MC4L2 mice tumor as an example of triple-positive breast cancer. About 20 mg/kg of Cisplatin was applied for a Control sample with a MC4L2 mice tumor without applying an electrostatic field.
Here, four injection periods of Doxorubicin were carried out every 3 days for a group of mice having a MC4L2 mice tumor as an example of triple-positive breast cancer. About 10 mg/kg of Doxorubicin was applied for a Control sample with a MC4L2 mice tumor without applying an electrostatic field. […] All sonography images were taken after about 10 days of treatments, and all drug injections were done every about 3 days.

Compound	tumor outcome in sonography images (about 1 mg/kg Doxorubicin followed by electrostatic field, sonography after about 10 days, FIG. 9B)	trace of tumor after the second injection period (about 1 mg/kg Doxorubicin per period, then DC electrostatic field 60 V to 120 V via conductive patch, sample mouse No. 2)	tumor outcome in sonography images (about 5 mg/kg Cisplatin followed by electrostatic field, FIG. 5B)	trace of tumor after the second injection period (about 5 mg/kg Cisplatin per period, then DC electrostatic field -60 V to -120 V via conductive patch, sample mouse No. 1)	reduction in tumor volume (about 20 mg/kg Cisplatin, without electrostatic field, FIG. 4B vs FIG. 4A)
COc1cccc2c1C(=O)c1c(O)c3c(c(O)c1C2=O)C[C@@](O)(C(=O)CO)C[C@@H]3O[C@H]1C[C@H](N)[C@H](O)[C@H](C)O1 [Doxorubicin]	removed completely	no observable trace of tumor	–	–	–
N.N.[Cl][Pt][Cl] [Cisplatin]	–	–	removed completely	no observable trace of tumor	about 60%
